Data on one molecule can be found in publication PMC5787524, “Discovery of a FLT3 inhibitor LDD1937 as an anti-leukemic agent for acute myeloid leukemia” (Oncotarget, 2017).

“And” between values parts separate entries of the source, which are not always exact repeats. Identical values can stand only once. Like-named read-outs stand apart in the source and are kept apart here.

Data set [1] relates to MV-4-11 cells. Briefly: Annexin V / propidium iodide flow cytometry (apoptosis). The format is cell-based, human. Particulars: 10 nM, 24 h. On the procedure:
For Annexin V staining, the Alexa Flour® 488 Annexin V/ Dead Cell Apoptosis Kit (ThermoFisher, USA) was used. Cells were seeded in 6-well plates (1 × 10^6 cells per well) and treated with compounds for 24 h. The cells were stained with Annexin V and propidium iodide (PI) according to the manufacturer’s instruction. Then, the cells were subjected to flow cytometry using an Accuri C6 flow cytometer (BD Bio-sciences, San Jose, CA, USA). The data were analyzed with the BD Accuri C6 software.

The test system of data set [2] is MV-4-11 cells. Briefly: TUNEL assay. Type of data set: cell-based, human. Conditions: 100 nM, 24 h. On the procedure: For the terminal deoxynucleotidyl transferase dUTP nick end labeling (TUNEL) assay, the APO-DIRECT Kit (BD Biosciences, San Diego, CA, USA) was used. Briefly, 2 × 10^6 cells were harvested and fixed in 2% formaldehyde/PBS solution for 30 min. on ice. The fixed cells were washed twice with PBS and stored in 1 ml of 70 % ethanol at –20°C until use. After washing with wash buffer, the cells were incubated in DNA Labeling Solution (reaction buffer, TdT Enzyme, and FITC dUTP) for 60 min. at 37°C. After labelling, the cells were washed twice with rinse buffer. The cells were incubated with 200 µg/ml RNase A and 5 µg/ml PI for an additional 30 min at room temperature. […] was measured with an Accuri C6 flow cytometer.

Data set [3] has as its system cellular senescence. The data set is described as follows: Senescence-associated β-galactosidase assay (SA-β-gal). Type of data set: cell-based. Conditions: data not shown.
Data set [4] concerns the target T1, FLT3 (Homo sapiens, UniProt P36888).
T1 construct: Recombinant proteins containing the FLT3 kinase domain were purchased from Carna biosciences (Japan); purchased Carna biosciences (Japan)
T1 sequence (P36888 610-943 limits assumed): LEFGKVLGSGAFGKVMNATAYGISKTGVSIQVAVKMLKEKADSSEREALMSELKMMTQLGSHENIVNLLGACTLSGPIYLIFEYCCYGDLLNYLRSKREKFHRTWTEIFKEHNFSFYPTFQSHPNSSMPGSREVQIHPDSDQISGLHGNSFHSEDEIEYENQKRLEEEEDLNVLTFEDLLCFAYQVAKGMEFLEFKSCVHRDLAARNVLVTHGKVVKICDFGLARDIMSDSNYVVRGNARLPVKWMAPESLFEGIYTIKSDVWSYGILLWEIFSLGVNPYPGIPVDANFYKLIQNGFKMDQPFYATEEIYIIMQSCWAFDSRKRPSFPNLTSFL
The data set is described as follows: In vitro FLT3 kinase assay (HTRF). The format is biochemical. On the procedure: The inhibition of the FLT3 kinase activity was measured with homogeneous, time-resolved fluorescence (HTRF) assays. Recombinant proteins containing the FLT3 kinase domain were purchased from Carna biosciences (Japan). Optimal enzyme, ATP, and substrate concentrations were established with the HTRF KinEASE kit (Cisbio, France) according to the manufacturer’s instructions. The FLT3 enzymes were mixed with serially diluted compounds and peptide substrates in a kinase reaction buffer (50 mM HEPES (pH 7.0), 500 μM ATP, 0.1 mM sodium orthovanadate, 5 mM MgCl2, 1 mM DTT, 0.01% bovine serum albumin (BSA), and 0.02% NaN3). After the addition of the reagents for detection, the TR-FRET signal was measured with a Victor multilabel reader (Perkin Elmer, Waltham, MA, USA). […] JAK2, JAK3, cMET, and RET in vitro kinase assays were also carried out using the HTRF assay kit.
Background: Time-resolved FRET reads energy transfer from a long-lived donor to a nearby acceptor.

A short description of data set [5]: Pharmacokinetics in mice (intravenous and oral). Type of data set: in vivo, ICR mice. Conditions: for AUC: read-out: AUC (converted); for half-life: read-out: Terminal half-life. How it is done: The protocols for the animal studies were approved by the Institute of Laboratory Animal Resources of Dongguk University, Seoul, South Korea (IACUC-2015-055-1). Five-week-old male Imprinting Control Region (ICR) mice were purchased from the Charles River Company Korea (Orient, Seoul, South Korea). Upon arrival, the animals were randomized and housed four per cage under strictly controlled environmental conditions (22-25°C and 48-52% relative humidity) with a 12 h light/dark cycle at an intensity of 150 to 300 Lux. All mice were provided food and water ad libitum and were then maintained during this study. In the intravenous study of LDD1937, 10 mg/kg of LDD1937 (dissolved in distilled water at a concentration of 2 mg/ml) were intravenously injected into the mice through the tail vein. A blood sample of approximately 0.12 ml was collected by cardiac puncture. Additionally, in the oral study of LDD1937, 10 mg/kg of LDD1937 (dissolved in the same solution used in the intravenous study) were orally administered to the mice. The analysis of LDD1937 and LDD1940, a metabolite of LDD1937, in biological samples was done with LC-MS/MS using the Waters UPLC-XEVO TQ system (Waters Corporation, Milford, CT, USA). […]1940, and carbamazepine (an internal standard, IS) were ionized in the multiple reaction monitoring mode with an ESI interface for positive ions ([M+H]^+). The turbo ion-spray interface was operated at an ion capillary voltage of 3.0 kV with a desolvation gas flow of 650 l/h and a cone gas flow of 10 l/h at 350°C. […] Separation was done on a reverse-phase C18 column (BEH, […]; Waters, Ireland) with a mobile phase, distilled water containing 0.1% formic acid and acetonitrile, at 30°C. After measuring the concentrations of the LDD1937 and LDD1940, standard methods were used to calculate the pharmacokinetic parameters using a non-compartmental analysis (WinNonlin 2.1; […] Corp., Mountain View, CA, USA).

[6] abbreviates: LDD1937, mice, 10 mg/kg intravenous.
The mark [7] stands for this setting: male, ICR, mouse, plasma, LDD1937, mice, 10 mg/kg intravenous.
[8] abbreviates: male, ICR, mouse, plasma, LDD1937, mice, 10 mg/kg oral.

Usually IC50 stands for the point on the concentration scale where inhibition reaches its midpoint. For orientation: MRT means the average time that molecules of a dose stay in the body. By AUC is commonly meant the area under the concentration-time curve, a measure of exposure. One may read the half-life as how long it takes for the measured level to halve. In general, bioavailability refers to the share of a dose that reaches the circulation, judged against a reference dose that is usually intravenous. High values mean good availability, low ones poor availability. For orientation: Cmax means the maximum level reached in the sampled fluid or tissue. By Tmax is commonly meant the time at which the peak concentration occurs. Consider `COC(=O)c1ccc2c(c1)/C(=C1/Nc3ccccc3/C1=N\OCCN1CCNCC1)C(=O)N2.Cl.Cl` [LDD1937, methyl (2Z,3E)-2′-oxo-3-((2-(piperazin-1-yl)ethoxy)imino)-[2,3′-biindolinylidene]-5′-carboxylate dihydrochloride], for which the “cells in upper right quadrant (Annexin V+ and PI+, late apoptotic)” value in data set [1] is 24.8%. Further, the “TUNEL positive cell population” value in data set [2] is recorded as 32.1%. In addition, the “SA-β-gal (cellular senescence)” value in data set [3] is given as “did not change”. The IC50 in data set [4] (Table 1, mean ± S.D., read-out: IC50 FLT3) was 3 ± 0.525 nM. Further, the IC50 in data set [4] (recombinant FLT3, HTRF, read-out: IC50 FLT3 kinase activity) was 3 ± 0.53 nM. Besides, in data set [5] (setting [6]), the CLNR came to 83.6 ± 9.81 mL/min/kg and the “GI24 h (total amount recovered from the gastrointestinal tract at 24 h)” value is 0.336 ± 0.0235 % of dose. Moreover, the “Ae0–24 h (total amount excreted in 24-h urine)” value in data set [5] (LDD1937, mice, 10 mg/kg intravenous, 10 mg/kg) was 0.283 % of dose and 0.283 ± 0.0252 % of dose. Also, the “Ae0–24 h” value in data set [5] (LDD1937, mice, 10 mg/kg oral) is given as 0.213 ± 0.0163 % of dose. Further, the GI24 h in data set [5] (LDD1937, mice, 10 mg/kg oral, 10 mg/kg) is 1.67 % of dose and 1.67 ± 1.92 % of dose. The concentration at 10 h in data set [5] (male, ICR, mouse, plasma, 10 h after 10 mg/kg intravenous dosing, mice, read-out: plasma level) was determined as 30 ng/mL. In addition, in data set [5] (setting [7]), the mean residence time MRT is 2.77 h, the clearance was 83.6 ± 9.81 mL/min/kg, the area under the curve (AUC) was 2000 ng·h/mL and the half-life was determined as 2.9 ± 0.47 h. Besides, the Vd in data set [5] (male, ICR, mouse, plasma, LDD1937, mice, 10 mg/kg intravenous, read-out: Vss) came out at 14.1 ± 4.31 L/kg. In addition, in data set [5] (setting [8]), the bioavailability was found to be 1.43%, the area under the curve (AUC) was 29.8 ng·h/mL and the half-life amounted to 1.72 ± 0.542 h. Moreover, in data set [5] (male, ICR, mouse, plasma, LDD1937, mice, 10 mg/kg oral, read-out: Cmax), the Cmax came to 23.3 ± 26.2 ng/mL. The Tmax in data set [5] (male, ICR, mouse, plasma, LDD1937, mice, 10 mg/kg oral, read-out: Tmax (converted)) is 0.5 h. Further, in data set [5] (single dose 10 mg/kg intravenous, mice), the plasma concentration reached came to 2700 ng/mL.
